Residues, ends and D or L forms follow the SMILES beside them.
Columns and labels:
[1] = tested on: Splenocytes; assay: Thymidine incorporation assay (growth stimulation); type: cell-based, C57BL/6 female mouse; conditions: compared to tuftsin; peptide 10 μg/ml; adherent and non-adherent splenocytes; 3H-thymidine
Procedure: Spleen is obtained from C57BL/6 female mouse (approximately 3 months old). Splenocytes are prepared by teasing the spleen and passing them through a sieving screen. These cells in HBSS with 2% FBS are then layered over LSM and centrifuged. The cells at interphase are collected, washed with RPMI-1640 medium with 2% FBS, suspended in the same medium at 1×10^6 cells/ml, and plated into wells (1×10^6 cells per well). The plate is incubated for 45 min. in the incubator. Non-adherent cells in each well are transferred to a new well. Adherent cells and non-adherent cells are incubated in separate wells with peptide (10 μg/ml) for 6 hours in 1 ml RPMI-1640 medium with 2% FBS. ^3 H-thymidine (0.1 μCi per well) is then introduced. The plate is kept in the incubator for another 18 hours. Each well is washed and cells are collected into a tube using 1 ml of cold HBSS. After washing the cells twice, the cells are counted, mixed with 0.2 ml of 0.1% sodium dodecyl sulfate, and transferred to a liquid scintillation vial for determination of radioactivity.

[2] = tested on: Human polymorphonuclear leukocytes (PMN); assay: Phagocytosis assay; type: cell-based; conditions: compared to tuftsin; statistically significant differences at peptide concentrations of 0.1, 1.0 and 10 μg/ml; fluorescent microspheres, 15 min
Procedure: Human polymorphonuclear leukocytes (PMN) are prepared from venous blood of healthy donors. Heparinized blood is mixed with dextran and kept at 37° C. for 1 hour. The leukocyte-rich plasma is collected and centrifuged. The resulting pellet is washed with Hank's balanced salt solution (HBSS). The pellet is then suspended into HBSS, layered over Lymphocyte Separation Medium (LSM) and centrifuged. The sedimented cells are washed with HBSS. Contaminant erythrocytes are lysed by suspending the cells in sterile water for 15 seconds. The isotonicity is then restored by adding 10XHBSS. After centrifuging, the PMN are washed with HBSS, suspended in the same medium, counted, and adjusted to 1×10^6 viable cells/ml (viability>95% by trypan blue dye exclusion). Cells (0.5×10^6 cells/well) are plated in 24 well plate and placed in a 37° C. CO2 incubator for 30 min. to form a monolayer. Thereafter the supernatant is aspirated. Tuftsin or analog in 250 μl HBSS and 1.25×10^7 fluorescent microspheres (2 μm diameter) in 250 μl HBSS, are added to each well resulting in a particle to PMN ratio of 25:1, mixed, and incubated for 15 min. The supernatant is then quickly aspirated and each well washed with HBSS. […] After 10 min, % phagocytosis (% of PMN containing one or more particles) is counted under a microscope. […]

[3] = tested on: K-562 tumor target cells; assay: Tumor cell cytotoxicity assay by human natural killer (NK) cells (51Cr release); type: cell-based; conditions: compared to tuftsin; NK cells activated 1 hour with 10 μg peptide per ml; 4 hour 51Cr release, K-562 targets
Procedure: A leukocyte-rich buffy coat preparation obtained from leukophoresis of a normal volunteer is used. Buffy coat is diluted with HBSS, layered over LSM, and centrifuged. The mononuclear cells at interphase are collected, washed with HBSS, suspended in RPMI-1640 medium with 10% FBS, adjusted to 5×10^6 /l ml, plated on Petri dishes (10 ml each), and incubated for 1 hour. Non-adherent cells are collected, poured into bottles containing nylon wool wet with HBSS, and kept in the incubator for 1 hour. Non-adherent cells are collected, suspended in RPMI-1640 medium with 10% FBS, adjusted to 2×10^7 /ml, mixed (1:1 volume ratio) with sheep red blood cells (6×10^8 /ml), placed in 29° C. bath for 15 min., centrifuged, and again placed in 29° C. bath for another hour. Cell clumps are gently broken up, layered over LSM, and centrifuged. […]
The viability of this NK cell enriched fraction is assessed with trypan blue, and washed with RPMI-1640 medium with 5% FBS. […] Filters containing radioactive supernatants are counted on a γ counter and counts per minutes (cpm) are recorded. Percent cytotoxicity (% specific lysis) is calculated by the following formula: [formula] […] Maximum cpm is obtained by releasing the radioactivity from the target cells by treatment with Triton X-100.

Structure (SMILES): CC(C)C[C@H](NC(=O)[C@H](CCCCN)NC(=O)[C@@H](N)[C@@H](C)O)C(=O)N[C@@H](CCCCN)C(=O)O [tuftsin analog, L-Thr-L-Lys-L-Leu-L-Lys] (H-TKLK-OH)
- stimulating thymidine incorporation (growth stimulation) [1]: significantly greater activity in stimulating thymidine incorporation (growth stimulation) than did tuftsin
- stimulation of phagocytosis (% phagocytosis) [2]: significantly greater stimulation of phagocytosis at lower concentrations compared to tuftsin itself
- tumor cell cytotoxicity enhancement of human NK cells [3]: significantly greater tumor cell cytotoxicity enhancement of human NK cells

From patent US5028593A, “Tuftsin analogs” (Board of Regents, The University of Texas System, priority 1989, dated 1991)
